In US10701876B2, “Production of plants using somatic embryogenesis” (MARS, INCORPORATED, priority 2013, dated 2020):

Test system: Theobroma cacao L. CCN-10 clones, primary somatic embryo epicotyl/cotyledon explants
Assay: Direct secondary somatic embryogenesis from primary somatic embryo explants (hormone balance and stressor test)
Type: cell-based
Description: For the production of secondary embryos, epicotyls are taken from primary somatic embryos with size 1 cm and 40 mg of weight and they were cut in 10-15 pieces and placed into flask with 25 ml of liquid medium for embryogenic induction (Table 5) with some modifications in the experimental design (Table 7) per 5 weeks (step c). The culture is exposed to a light:dark 16:8 photoperiod, at a temperature of 27±2° C. and photosynthetic active radiation (PAR) or photosynthetic photon flux density (PPFD) of 50-190 μmol/m^2 per second. After this period, the somatic embryos in globular stage are transferred into the Petri dish in semi-solid developing media (Table 6) with some modifications (Table 8), with a 21-day culture period in light conditions until the embryos express and develop to the heart or early torpedo stage. Afterward, the cultures were transferred into the Petri dish in the same medium, but without gibberellic acid and with the same culture conditions but in the dark with transferences every 14 days for embryo's maturation. A variety of media were tested to assess the concentrations of plant hormones and stressors to be used in direct secondary somatic embryogenesis, as set forth in the following tables: [table] [table] Cotyledon explants were collected 40 days after induction and were used for study. Samples were fixed with FAA [10% formalin, 5% acetic acid, 50% ethanol (v/v)] per 8 days. The sample must be previously cut into approximately 0.5 to 1.0 mm. Do three (3) washes of 5 minutes each with distilled water or buffer to remove the fixative. […] the material in increasing concentrations of ethanol for at least 1 h of 70%, 85% and 95% at room temperature (incubation time varies with the kind of the material). Since the experiments were established, evaluations have been performed every 14 days, and some dependent variables like: number of calluses formed, number of normal embryos without callus formation, number of abnormal embryos without callus formation, number of pro-embryogenic masses, number of torpedo embryos, number of heart embryos, number of globular embryos, and overall observations. The Dino-Lite digital microscope premier, AM4113/AD4113 series was used for the observations. The experiment was a sequence of mediums where the first was induction medium (Table 7) followed by combination with develop medium (Table 8). The factorial analysis was 5×2, in view of the testing of 2 sucrose concentrations (40 and 80 g/l) and 5 gibberellic acid concentrations (0.0, 0.2, 0.4, 0.6 and 1.0 mg/l), using a completely randomized design.

Row | Compound | direct somatic embryos developed by embryonic regions of cotyledon explants (histological analysis) (induction medium with 1.0 mg/L BAP and 40 g/L sucrose, 40 days of culture (FIG. 5)) | quantity of abnormal embryos (1 mg/l gibberellic acid and 40 g/l sucrose in development medium, compared with the other treatments (FIG. 4)) | expression of direct somatic embryos (number of embryos produced) (different concentrations of gibberellic acid in combination with 40 g/L or 80 g/L sucrose (FIG. 4)) | normal embryos (sequence of media: induction 1.0 mg/l BAP + 40 g/l sucrose, light, 40 days, then 0.6 mg/l gibberellic acid + 40 g/l sucrose, light, 21 days, then same medium without gibberellic acid, darkness) [%]
1 | c1ccc(CNc2ncnc3nc[nH]c23)cc1 [BAP, 6-benzylaminopurine] | large numbers of direct somatic embryos in globular and heart stage |  |  | 
2 | C=C1C[C@]23C[C@@]1(O)CC[C@H]2[C@@]12C=C[C@H](O)[C@@](C)(C(=O)O1)[C@H]2[C@@H]3C(=O)O [gibberellic acid] |  | highest quantity of abnormal embryos | influenced the expression of direct somatic embryos | 83.3
